This is an account of results in patent US4542123A (Massachusetts Institute of Technology, priority 1982, dated 1985).

A short description of data set [1]: Brain and serum tyrosine in fasted rats given tyrosine alone or tyrosine and glucose (Example III, Table 2). In kind it is in vivo, Sprague-Dawley rats. Particulars: tyrosine 100 mg/kg alone; 90 min.
Data set [2] in a line: Brain and plasma tyrosine ratios in fasted rats, tyrosine and glucose given concurrently (Example II, second set). Particulars: rat, brain, po, 100 mg/kg.
A further data set can be described thus: in vivo. To be noted: rat, po, 100 mg/kg.

On to `N[C@@H](Cc1ccc(O)cc1)C(=O)O` [Tyrosine, tyrosine], for which, in data set [1], the “Brain Tyrosine” value turned out to be 23.0 ± 2.2 µg/mL, the “Brain/Serum (tyrosine)” value came to 1.02 ± 0.1 and the “Serum Tyrosine/Serum LNAA” value is recorded as “.304”. In addition, the Kp at […] in data set [2] is 0.77. Moreover, the Kp at 1 h in “in vivo” (brain) turned out to be 0.78. The concentration at 1 h in “in vivo” (serum) came out at 20900 ng/mL.
